Patent US20050048122A1, “Method for stabalizing timolol concentration” (Pharmacia & Upjohn Company, priority 2003, published 2005)

Experiment: Storage of the aqueous ophthalmic composition in polyethylene bottles: concentration of active ingredient over time
Format: physicochemical
Conditions: for concentration upon storage at low temperature / concentration upon storage at room temperature: polyethylene bottles; for concentration upon storage at low temperature: low (2-8° C.) temperature
Procedure: The ophthalmic products XALATAN® (comprising approximately 50 μg/ml latanoprost) and XALCOM® (comprising approximately 50 μg/ml latanoprost and 5 mg/ml timolol) are packaged in bottles. The bottle is typically made of clear low-density polyethylene with a clear low-density polyethylene dropper tip, a high-density polyethylene screw cap, and a clear low-density polyethylene overcap. Unopened bottles are stored at 2-8° C.
While storage at recommended temperature has proven to be an effective way of maintaining product stability of the ophthalmic products, it would be desirable to store such ophthalmic products at room temperature for prolonged periods without adversely affecting the concentration(s) of the active ingredient(s).
Following extensive research, a better understanding of the above-mentioned phenomenon has now been achieved. When the polyethylene packages are stored, moisture from the composition is lost to the atmosphere. Moreover, prostaglandin itself is absorbed into or adsorbed to the bottle resin and thus removed from the composition. […] Thus, the concentration of timolol increases over time and may have undesired systemic effects upon administration to the eye. This net effect of this phenomenon is more pronounced at room temperature than at low temperature.

Row | concentration upon storage at low temperature | concentration upon storage at room temperature | SMILES | loss to the atmosphere or absorption/adsorption by the package material (polyethylene packages on storage)
1 | maintained at a nearly constant level | maintained at a nearly constant level | CC(C)OC(=O)CCC/C=C\C[C@@H]1[C@@H](CC[C@@H](O)CCc2ccccc2)[C@H](O)C[C@@H]1O [latanoprost] | 
2 | maintained at a nearly constant level | increases gradually over time | CC(C)(C)NC[C@H](O)COc1nsnc1N1CCOCC1 [timolol, (S)-1-[(1,1-dimethylethyl)amino]-3-[ [4-(4-morpholinyl)-1,2,5-thiadiazol-3-yl]oxy]-2-propanol] | neither lost to the atmosphere nor absorbed/adsorbed by the package material to any large extent
